Laboratory results from publication PMC6685951, “Migration of Bacteriocins Across Gastrointestinal Epithelial and Vascular Endothelial Cells, as Determined Using In Vitro Simulations” (Scientific Reports, 2019).
Converted amounts (≈) assume the structure as drawn. Where a SMILES comes first, the peptide text is derived from it. Bridges are numbered along the chain shown (N, C = ends).

Legend:
[1] = tested on: HUVEC; assay: XTT viability assay, HUVEC; format: cell-based, human; conditions: 24 h, 37 °C
Description: (§1) For viability and cytotoxicity studies, cells were seeded in 96-well flat-bottom culture plates (1 × 10^4 cells/well). To determine migration of nisin A, plantaricin 423 and bacST4SA across the gastrointestinal epithelial and vascular endothelial barriers, HUVEC and Caco-2 cells were grown on an 8 µm pore size tissue culture insert, as shown in Fig. 1. All cell culture experiments were done in triplicate and have been repeated more than three times.
(§2) Cells were grown in 100 µL of culture medium for 24 h at 37 °C. The bacteriocins were separately added to the cells at concentrations of 25 µM, 50 µM and 100 µM. Sterile ultrapure water was used as control. After 24 h of incubation at 37 °C, the reaction mixture containing PMS (N-methyl-dibenzopyrazine-methylsulfate/phenazine methosulphate) and XTT solution, was added to each well and incubated for 4 h at 37 °C. Absorbance readings were recorded at 450 nm, using a microtiter plate reader. The percentage viability was calculated as AT/AC × 100; where AT is the absorbance of peptide-treated cells and AC is the absorbance of control (untreated cells).

[2] = tested on: Caco-2 cell monolayer; assay: Migration across Caco-2 monolayer on transmigration inserts; format: in vitro ADME, human; conditions: 3 h
Description: as §1
(§3) HUVECs and Caco-2 cells were seeded onto transmigration inserts (Fig. 1) at a cell density of 1 × 10^5 cells/insert (200 µL). Inserts were carefully placed in a 24-well tissue culture plate containing 700 µL cell growth media. […] The integrity of the monolayers was monitored by ensuring trans-epithelial electrical resistance (TEER) readings remained above 300 Ω throughout the experiment (Millicell-ERS volt-ohm meter, Merck)[51],[52],[62]. […] Transmigration inserts containing no monolayer, was used to determine the total fluorescence. Samples were incubated for 3 h while absorbance was measured at 490 nm every 30 min using a microplate reader. Before each reading, inserts were removed and placed into new microplates containing fresh media. […]
(§4) The percentage of peptide that attached to, or entered the cells was quantified by subtracting the sum of migrated peptide (eq. 4) and retained peptide (eq. 5) from the total fluorescence. […]

[3] = tested on: Caco-2 cells; assay: XTT viability assay, Caco-2; format: cell-based, human; conditions: 24 h, 37 °C
Description: as §1, §2

[4] = tested on: L. monocytogenes EGDe; format: cell-based, Listeria monocytogenes; conditions: microtiter plate, Listeria enrichment broth, 37 °C, OD600; lowest concentration inhibiting growth after 18 h
Description: The BCA assay was used according to the manufactures instructions to determine the concentration of the peptides. The MIC of the peptides was determined using a microtiter plate. Briefly, L. monocytogenes EGDe was inoculated into Listeria enrichment broth (LEB) and incubated overnight at 37 °C. The culture was inoculated into fresh LEB and incubated until an OD600 of 0.1 was reached. A series of peptide concentrations was prepared and 50 µL of each added per well, followed by the addition of 150 µL culture. The controls were ddH2O containing 0.1% (v/v) TFA with 150 µL culture or media. Microtiter plates were incubated at 37 °C and OD600 readings were taken at T0, T5 and T18 (hours). The MIC was determined as the lowest peptide concentration required to inhibit the growth of L. monocytogenes EGDe after 18 h.

[5] = tested on: HUVEC monolayer; assay: Migration across HUVEC monolayer on transmigration inserts; format: in vitro ADME, human; conditions: 3 h
Description: as §1, §3, §4

[6] = tested on: Caco-2 cells; assay: LDH release assay, Caco-2; format: cell-based, human; conditions: 24 h
Description: as §1
HUVEC and Caco-2 cells were exposed to three different concentrations (25 µM, 50 µM and 100 µM) nisin A, plantaricin 423 and bacST4SA and the presence of extracellular LDH determined using the LDH release assay kit. Sterile ultrapure water was used as negative control (referred to as spontaneous LDH activity) and lysis buffer (10X) was used as positive control (referred to as maximum LDH activity). After incubating the cultures in the presence of the peptides for 24 h at 37 °C, culture supernatants were pipetted into a 96-well plate. Reaction mixture was added to the supernatants and plates were incubated at 25 °C for 30 min. Absorbance was measured at 490 nm and 680 nm, respectively. The percentage cytotoxicity was calculated as follows (1):1 %Cytotoxicity=(Compound−treatedLDHactivity)−(SpontaneousLDHactivity)/MaximumLDHactivity−SpontaneousLDHactivity×100

## CC(C)C[C@@H]1NC(=O)[C@H](Cc2c[nH]cn2)NC(=O)[C@H](CO)NC(=O)[C@H](C(C)C)NC(=O)[C@H](CO)NC(=O)[C@@H](NC(=O)[C@H](CO)NC(=O)[C@H](Cc2ccccc2)NC(=O)[C@H](C)NC(=O)[C@H](CCC(N)=O)NC(=O)CNC(=O)[C@H](Cc2c[nH]c3ccccc23)NC(=O)[C@H](CC(N)=O)NC(=O)[C@@H](NC(=O)[C@H](CO)NC(=O)[C@@H]2CSSC[C@H](NC(=O)[C@@H](NC(=O)[C@@H](NC(=O)CNC(=O)[C@H](CC(N)=O)NC(=O)CNC(=O)[C@H](Cc3ccc(O)cc3)NC(=O)[C@H](Cc3ccc(O)cc3)NC(=O)[C@@H](N)CCCCN)C(C)C)[C@@H](C)O)C(=O)NCC(=O)N[C@@H](CCCCN)C(=O)N[C@@H](Cc3c[nH]cn3)C(=O)N[C@@H](CO)C(=O)N2)C(C)C)CSSC[C@@H](C(=O)O)NC(=O)[C@H](CCCCN)NC(=O)CNC(=O)[C@H](Cc2c[nH]cn2)NC(=O)CNC(=O)[C@H](Cc2ccccc2)NC(=O)[C@H](CC(N)=O)NC(=O)[C@H](C)NC1=O [plantaricin 423] (H-KYYGNGVTCGKHSCSVNWGQAFSCSVSHLANFGHGKC-OH; disulfide 9-14, 24-37; N-terminus and C-terminus assumed)
[1]; 25 µM and 50 µM (up to 50 µM), absorbance 450 nm
  cell viability (XTT): did not cause significant decreases
[1]; 100 µM
  cell viability (XTT): slight reduction
[2]; Caco-2, labelled peptide 50 µM, total fluorescence minus migrated and residual peptide
  percentage attached and/or entered peptide: 11%
[2]; Caco-2 monolayer on 8 µm pore insert, apical addition, NHS-fluorescein labelled peptide 50 µM, 37 °C, TEER above 300 Ω, read at 490 nm, % of no-monolayer control, triplicate
  migrated peptide: 85%
[3]; Caco-2, 25 µM and 50 µM (up to 50 µM), absorbance 450 nm
  cell viability (XTT): did not cause significant decreases
[3]; Caco-2, 100 µM
  cell viability (XTT): slight reduction
[4]
  MIC: 12 µM (≈ 47.2 µg/mL)
[5]; HUVEC monolayer on 8 µm pore insert, apical addition, NHS-fluorescein labelled peptide 50 µM, 37 °C, TEER above 300 Ω, read at 490 nm, % of no-monolayer control, triplicate
  migrated peptide: 93%
[5]; HUVEC, labelled peptide 50 µM, total fluorescence minus migrated and residual peptide
  percentage attached and/or entered peptide: 0%
[6]; Caco-2, 100 µM, 37 °C, percentage of maximum LDH release (lysis buffer = 100%)
  cytotoxicity level (LDH release): 17%
[6]; Caco-2, concentrations up to 100 µM
  toxicity (LDH release): minimal toxicity
